Data from PMC4133124 (Clinical pharmacokinetics, 2014).
Where two headings read alike, the source gives them in different places.

Key:
[1] = Sitagliptin pharmacokinetics published in the literature; assay type: in vivo, human; conditions: comparison with ref 9
[2] = cited from earlier work
[3] = cited from earlier work; remark: listed apart in the source
[4] = 600 mg OD, HCT population; ref Farag, S.S. et al. [9]; cited from earlier work
[5] = Sitagliptin plasma pharmacokinetics in adults after single-unit UCB HCT; assay type: in vivo, human
[6] = tested on: engraftment of single unit UCB transplants; conditions: single unit UCB HCT, sitagliptin 600 mg OD days −1 to +2; cited from earlier work
[7] = 83 mg OD, ref Vincent, S.H. et al. [12]
[8] = 100 mg OD, ref Herman, G.A. et al. [14]
[9] = 100 mg OD, ref Kim, B.H. et al. [13]
[10] = 200 mg BID, ref Herman, G.A. et al. [16]
[11] = 600 mg OD, ref Bergman, A.J. et al. [10]
[12] = 600 mg OD, ref Herman, G.A. et al. [11]
[13] = bootstrap analysis median [5 – 95th percentiles], 200 data sets
[14] = population estimate (RSE%), 600 mg OD oral, HCT patients

Structure (SMILES): N[C@@H](CC(=O)N1CCn2c(nnc2C(F)(F)F)C1)Cc1cc(F)c(F)cc1F [sitagliptin]
- clearance (dose/AUC0-∞) in non-HCT populations lower than in HCT (Farag et al.) [1]: 50%
- AUC0-∞ [2, 7]: 2460.15 ng·h/mL
- Cmax [2, 7]: 309.14 ng/mL
- AUC0-∞ ([2]; 100 mg OD, ref Bergman, A. et al. [15]): 3470.28 ng·h/mL
- AUC0-∞ ([2]; 100 mg OD, ref Bergman, A. et al. [17]): 3217.74 ng·h/mL
- AUC0-∞ [2, 8]: 3523.23 ng·h/mL
- Cmax [2, 8]: 390.61 ng/mL
- AUC0-∞ [2, 9]: 2407.23 ng·h/mL
- Cmax [2, 9]: 383.17 ng/mL
- AUC0-12 (column AUC0-∞, footnote b) [2, 10]: 5987.45 ^b ng·h/mL
- Cmax [2, 10]: 928.66 ng/mL
- AUC0-24 (column AUC0-∞, footnote a) [2, 11]: 22772.81 ^a ng·h/mL
- Cmax [2, 11]: 3156.65 ng/mL
- AUC0-∞ [2, 12]: 22402.05 ng·h/mL
- Cmax [2, 12]: 3437.7 ng/mL
- renal elimination ([2]; glomerular filtration and active secretion): 87%
- administered dose metabolized via CYP3A and 2C8 ([2]; healthy volunteers and patients with type 2 diabetes mellitus): 16%
- bioavailability ([2]; healthy volunteers): 87%
- protein-bound [3]: 34–46%
- AUC0-∞ [4]: 11661 ng·h/mL
- Cmax [4]: 1690 ng/mL
- VC/F (second line so labelled, row r8) [5, 13]: 207.51 [160.11 – 249.82] L
- ka [5, 13]: 0.22 [0.20 – 0.25] h^−1
- Vd/F ([5]; human, plasma, po, 600 mg): 176 L
- sitagliptin pharmacokinetics in the HCT population lower than published profiles ([5]; in vivo): ~ 50%
- CL/F, total apparent oral clearance [5, 14]: 84.79 (11.91) L/h
- Q/F, inter-compartmental distribution clearance [5, 14]: 14.29 (13.25) L/h
- VC/F (second line so labelled, row r8) [5, 14]: 217.62 (13.19) L
- ka, first order rate constant of absorption [5, 14]: 0.22 (7.47) h^−1
- median time to engraftment [6]: 21 days
